Laboratory results from patent US12023341B2, “Platinum-acridine compounds and methods of treating cancers” (Wake Forest University, priority 2020, dated 2024).

What was measured:
HCT-116 cells = assay: Uptake of compound 1 after epigenetic drugs, confocal fluorescence microscopy; assay type: cell-based, human; conditions: HCT-116, pre-screen of epigenetic drugs, alone or in combination
Procedure: We first pre-screened several epigenetic drugs in cultured HCT-116 cells in a multi-well plate format for their ability to increase the uptake of compound 1 using confocal fluorescence microscopy. […] These compounds were then tested again at escalating doses (2.5-20 mM).
Confocal fluorescence microscopy. Cells were seeded and allowed to attach overnight before any treatment. After cells were treated depend on purposes of different experiments, media was removed and dishes were rinsed 3 times with 1 mL of pre-warmed PBS buffer. Cells were then used fixed with 4% formaldehyde in PBS buffer for 15 minutes. Dishes were then washed an additional 3 times with 1 mL of pre-warmed PBS before imaging. Images were collected using a LSM 880 Confocal Microscope (Carl Zeiss Microscopy) using a 63X/1.4NA Plan-Apochromatic objective. The fluorescence of acridine was excited with a 405 nm (15 mW) laser at 4.4% and collected between 405-481 nm. To allow comparative fluorescence intensity analysis, excitation power, pinhole settings, PMT gain, and offset values across and within imaging sessions for each respective channel were not changed. The intensity of acridine-related fluorescence in treated cells was estimated by drawing a region of interest around each cell. A total of more than 100 individual cells across 3 views of 2 independent experiments were analyzed in this fashion. […]

hMATE1 = biological target: T1, hMATE1 (Homo sapiens, UniProt Q96FL8); conditions: reported values; cited from earlier work
T1 sequence (Q96FL8 1-570): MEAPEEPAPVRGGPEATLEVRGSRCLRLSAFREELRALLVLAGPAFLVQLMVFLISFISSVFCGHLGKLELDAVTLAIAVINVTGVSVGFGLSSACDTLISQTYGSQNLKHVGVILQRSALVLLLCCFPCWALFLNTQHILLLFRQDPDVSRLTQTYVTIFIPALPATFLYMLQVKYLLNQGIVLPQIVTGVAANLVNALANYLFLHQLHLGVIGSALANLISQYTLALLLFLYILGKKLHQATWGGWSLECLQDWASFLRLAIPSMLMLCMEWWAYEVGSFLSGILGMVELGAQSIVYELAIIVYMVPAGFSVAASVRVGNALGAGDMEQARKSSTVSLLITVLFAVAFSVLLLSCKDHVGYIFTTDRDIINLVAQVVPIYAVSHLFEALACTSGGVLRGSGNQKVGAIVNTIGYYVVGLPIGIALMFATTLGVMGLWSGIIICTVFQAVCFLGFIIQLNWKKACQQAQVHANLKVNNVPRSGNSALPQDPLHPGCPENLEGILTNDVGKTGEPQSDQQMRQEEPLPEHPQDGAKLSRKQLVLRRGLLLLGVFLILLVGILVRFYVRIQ

SMILES | uptake of compound 1 (acridine-associated blue fluorescence) (HCT-116 cells) | Ki (hMATE1) [nM]
CS(=O)(=O)c1ccc(-c2cnc(NCc3ccco3)n3cnnc23)cc1 [EED226] | enhanced uptake of compound 1 | –
CCN(c1cc(-c2ccc(CN3CCOCC3)cc2)cc(C(=O)NCc2c(C)cc(C)[nH]c2=O)c1C)C1CCOCC1 [EPZ-6438] | enhanced uptake of compound 1 | –
CCc1nc(N)nc(N)c1-c1ccc(Cl)cc1 [pyrimethamine] | – | 77 to 93
